Data published in article PMC7065195 (2020).

Assays:
[1] = system: poly dAdT–poly dAdT (poly(dA-dT)2, AT-DNA) (DNA, polymer) AT; assay: UV thermal melting at 260 nm; details: Na+ (sodium cacodylate, I=0.05 M); pH 7.0; ratio r=[compound]/[polynucleotide]=0.1; per base
[2] = system: poly A–poly U (poly rA–poly rU, AU-RNA) (RNA, polymer) A/U; assay: UV thermal melting at 260 nm; details: Na+ (sodium cacodylate, I=0.05 M); pH 7.0; ratio r=[compound]/[polynucleotide]=0.1; per base

- ΔTm [1]: +10.0 ± 0.5 °C
- ΔTm [2]: +9.5 ± 0.5 °C
Compound: Cc1cc(-c2ccc(-c3ccc(-c4cc(C)c(B(c5c(C)cc([N+](C)(C)C)cc5C)c5c(C)cc([N+](C)(C)C)cc5C)c(C)c4)s3)s2)cc(C)c1B(c1c(C)cc([N+](C)(C)C)cc1C)c1c(C)cc([N+](C)(C)C)cc1C
